Values joined by “and” are separate entries in the source; they are usually repeats but may differ in a detail not shown here. Equal entries are not always repeated.
Experiments:
[1] = pH-solubility (high-throughput, buffers); assay type: physicochemical; conditions: for Sol. pH 4: 1000 ug compound in 1 mL pH 4 buffer; for Sol. pH 7: 1000 ug compound in 1 mL pH 7 buffer; for Sol. pH 9: 1000 ug compound in 1 mL pH 9 buffer
Description: Solubility of representative acidic triazoles was measured in 3 buffer systems (pH 4, 7.4 and 9) using an in-house high-throughput solubility method. A stock solution of test article was prepared in DMA (20 mg/ml) and spiked into each buffer system (20× dilution) to target 1 mg/ml concentration. The samples were vortexed briefly and equilibrated for 24 hr at RT. Samples were then filtered using 0.22u PVDF membrane filters and analyzed for drug concentration using HPLC.

CCR9 receptor = target: T1, CCR9 receptor (Homo sapiens, UniProt P51686); assay: Calcium mobilization (Ca FLIPR) assay, antagonist mode vs TECK; assay type: cell-based; conditions: for LipE: LipE = pIC50-clogD; for IC50: cells expressing CCR9, TECK at EC80 0.01 uM, read-out: CCR9 Ca2+ IC50
T1 sequence (P51686 1-369): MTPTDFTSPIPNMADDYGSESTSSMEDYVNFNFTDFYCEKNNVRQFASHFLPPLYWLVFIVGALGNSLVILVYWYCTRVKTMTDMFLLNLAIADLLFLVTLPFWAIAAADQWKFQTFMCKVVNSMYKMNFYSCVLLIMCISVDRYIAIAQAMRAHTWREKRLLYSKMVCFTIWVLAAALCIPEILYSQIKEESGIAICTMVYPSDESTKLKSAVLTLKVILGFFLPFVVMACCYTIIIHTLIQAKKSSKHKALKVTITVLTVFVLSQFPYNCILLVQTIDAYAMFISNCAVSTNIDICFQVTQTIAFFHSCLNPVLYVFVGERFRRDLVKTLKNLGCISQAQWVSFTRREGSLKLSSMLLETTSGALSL
Description: Calcium Mobilization Assay:
Cells expressing CCR9 receptor (MultiSpan, Hayward, Calif.) were seeded in 384-well plates. Ca^2+ assays were conducted after overnight culture in the plates according to the manufacturer's protocol using Screen Quest™ Fluo-8 no wash kit (AAT Bioquest, Sunnyvale, Calif.). Dye loading buffer was added to the cells and incubated for 45 minutes at 37° C. followed by 15 minutes incubation at room temperature. Compounds in the presence of 0.1% DMSO were applied to the cells during calcium flux measurement. Calcium flux was monitored for 90 seconds with compound application after 10 seconds. For antagonist mode, cells were preincubated with the compound at room temperature for 10 minutes before the application of the control agonist TECK (Preprotech, Rocky Hill, N.J.) at EC80 concentration of 0.01 uM obtained from dose-response curves of control agonist.

[2] = Human liver microsome clearance; assay type: in vitro ADME; conditions: second value of RLM/HLM cell
[3] = Rat liver microsome clearance; assay type: in vitro ADME; conditions: first value of RLM/HLM cell
Description: Microsomal In-Vitro Clearance:
The test articles (2 μM) were incubated for one hour in 1 mg/mL rat hepatic microsomes with 2 mM NADPH at 37° C. with aliquots removed at t=0, 15, 30 and 60 minutes. Incubations were terminated at the specified times by protein precipitation, and samples were centrifuged. Resultant supernants were analyzed by LC-MS/MS for the amount of incubated compound remaining, and the half life (t1/2) and intrinsic microsomal clearance rate (CLint) of each compound was calculated.

Molt-4 cells = assay: Chemotaxis assay of Molt-4 cells towards TECK; assay type: cell-based; conditions: Homo sapiens; Molt-4 cells in HBSS buffer with 0.1% BSA; TECK at EC80
Description: Molt-4 cells were harvested and re-suspended in HBSS buffer with 0.1% BSA or in 100% human serum. Cell suspensions were mixed with compound solutions for 10 min and then seeded onto the upper chamber of the ChemoTX chemotaxis plates with 5 μm pore size polycarbonate membrane from NeuroProbe (Gaithersburg, Md.). EC80 concentration of TECK was applied in the bottom chamber. After 2 hours of incubation at 37° C., the assay was terminated by removing the upper chamber. The cells migrated into the bottom chamber were quantified with CyQUANT solution from Invitrogen (Grand Island, N.Y.).

| Compound | Sol. pH 4 [1] | Sol. pH 7 [1] | Sol. pH 9 [1] | LipE (CCR9 receptor) | IC50 (CCR9 receptor) [nM] | HLM CL (human liver microsome hepatic clearance) [2] | RLM CL (rat liver microsome hepatic clearance) [3] [mL/min/kg] | IC50 (Molt-4 cells) [nM] |
| --- | --- | --- | --- | --- | --- | --- | --- | --- |
| Cc1nc2nc(C(F)(F)F)nn2c(O)c1Cc1ccc(C(C)(C)C)cc1 [Compound 2] | 4 ug/mL | 565 ug/mL | 1035 ug/mL and > 1000 ug/mL | 2.6 | 410 | 19 mL/min/kg | 54 | – |
| Cc1c(Cc2ccc(C(C)(C)C)cc2)c(O)nc2ncnn12 [Compound 3] | – | – | – | – | 820 | – | – | – |
| Cc1c(Cc2ccc(C(C)(C)C)cc2)c(=O)n2nc(C(F)(F)F)nc2n1C [Compound 4] | – | – | – | – | > 20000 | – | – | – |
| COc1c(Cc2ccc(C(C)(C)C)cc2)c(C)nc2nc(C(F)(F)F)nn12 [Compound 5] | – | – | – | – | 3700 | – | – | – |
| Cc1nc2cc(C(F)(F)F)nn2c(O)c1Cc1ccc(C(C)(C)C)cc1 [Compound 7] | 0 ug/mL | 0 ug/mL | 5 ug/mL | – | 110 | 18 mL/min/kg | 42 | 980 |
| CCc1nc2n[nH]c(=O)n2c(O)c1Cc1ccc(C(C)(C)C)cc1 [Compound 8] | 79 ug/mL | 117 ug/mL | 914 ug/mL | 5.5 | 28 | 4 mL/min/kg | 39 | 230 |
| Cc1cn2c(O)c(Cc3ccc(C(C)(C)C)cc3)c(C)nc2n1 [Compound 9] | – | – | – | – | > 10000 | – | – | – |
| CCc1nc2c[nH]nc2c(O)c1Cc1ccc(C(C)(C)C)cc1 [Compound 10] | – | – | – | – | > 10000 | – | – | – |
| Cc1nc2nc(C)c(Cc3ccc(C(C)(C)C)cc3)c(O)n2n1 [Compound 12] | – | – | – | 3.9 | 220 | 11 mL/min/kg | 50 | – |
| CCc1nc2nc(C)nn2c(O)c1Cc1ccc(C(C)(C)C)cc1 [Compound 13] | – | – | – | 4.4 | 19 | – | – | 130 |
| CCc1nc2nc(N)nn2c(O)c1Cc1ccc(C(C)(C)C)cc1 [Compound 14] | 2 ug/mL | 7 ug/mL | 358 ug/mL | 5.9 | 2 | 6 mL/min/kg | 39 | 50 |
| CCc1nc2nc(N(C)C)nn2c(O)c1Cc1ccc(C(C)(C)C)cc1 [Compound 15] | – | – | – | 4.1 | 33 | 12 mL/min/kg | 43 | 380 |
| CCc1nc2nc(CN(C)C)nn2c(O)c1Cc1ccc(C(C)(C)C)cc1 [Compound 16] | – | – | – | – | 290 | – | – | – |
| CCc1nc2nc(COC)nn2c(O)c1Cc1ccc(C(C)(C)C)cc1 [Compound 17] | – | – | – | – | 7 | 13 mL/min/kg | 36 | 190 |
| CCc1nc2nc(C(=O)N(C)C)nn2c(O)c1Cc1ccc(C(C)(C)C)cc1 [Compound 18] | 0 ug/mL | 0 ug/mL | 5 ug/mL | – | 12 | 18 mL/min/kg | 42 | 520 |
| CCOc1nc2nc(CC)c(Cc3ccc(C(C)(C)C)cc3)c(O)n2n1 [Compound 19] | 79 ug/mL | 117 ug/mL | 914 ug/mL | 4.2 | 8 | 11 mL/min/kg | 16 | 150 |

| Compound | Sol. pH 4 [1] | Sol. pH 7 [1] | Sol. pH 9 [1] | LipE (CCR9 receptor) | IC50 (CCR9 receptor) [nM] | HLM CL (human liver microsome hepatic clearance) [2] | RLM CL (rat liver microsome hepatic clearance) [3] [mL/min/kg] | IC50 (Molt-4 cells) [nM] |
| --- | --- | --- | --- | --- | --- | --- | --- | --- |
| CCc1nc2nc(CO)nn2c(O)c1Cc1ccc(C(C)(C)C)cc1 [Compound 20] | – | – | – | 5.5 | 10 | 8 mL/min/kg | 43 | 200 |
| CCc1nc2ncnn2c(O)c1Cc1ccc(C(C)(C)C)cc1 [Compound 21] | – | – | – | 4.8 | 21 | 12 mL/min/kg | 51 | 88 |
| CCCc1nc2ncnn2c(O)c1Cc1ccc(C(C)(C)C)cc1 [Compound 22] | – | – | – | 5.0 | 4 | – | – | 55 |
| CC(C)c1nc2ncnn2c(O)c1Cc1ccc(C(C)(C)C)cc1 [Compound 23] | 2 ug/mL | 7 ug/mL | 358 ug/mL | 4.0 | 52 | 13 mL/min/kg | 44 | 340 |
| CC(C)Cc1nc2ncnn2c(O)c1Cc1ccc(C(C)(C)C)cc1 [Compound 24] | – | – | – | 3.9 | 27 | 12 mL/min/kg | 43 | 270 |
| CCOc1nc2ncnn2c(O)c1Cc1ccc(C(C)(C)C)cc1 [Compound 25] | – | – | – | 4.8 | 23 | 11 mL/min/kg | 52 | 92 |
| CC(C)(C)c1ccc(Cc2c(C3CCCC3)nc3ncnn3c2O)cc1 [Compound 28] | – | – | – | – | 15 | 11 mL/min/kg | 47 | 145 |
| CC(C)(C)c1ccc(Cc2c(C3CCOC3)nc3ncnn3c2O)cc1 (centres unmarked) [Compound 29] | – | – | – | – | 17 | 8 mL/min/kg | 45 | 205 |
| CC(C)(C)c1ccc(Cc2c(-c3ccoc3)nc3ncnn3c2O)cc1 [Compound 30] | – | – | – | 5.3 | 5 | – | – | 104 |
| CC(C)(C)c1ccc(Cc2c(O)nc3ncnn3c2O)cc1 [Compound 31] | – | – | – | – | > 10000 | – | – | – |
| CN(C)c1nc2ncnn2c(O)c1Cc1ccc(C(C)(C)C)cc1 [Compound 32] | – | – | – | – | > 1000 | – | – | – |
| Cc1nc2nc(C(F)(F)F)nn2c(O)c1Cc1ccc(N2CC(C)OC(C)C2)c(F)c1 (centres unmarked) [Compound 33] | 79 ug/mL | > 1000 ug/mL | > 1000 ug/mL | 3 | 1900 | —/17 mL/min/kg | – | – |
| Cc1nc2nc(C(F)(F)F)nn2c(O)c1Cc1ccc(C2(F)CCOCC2)cc1 [Compound 34] | – | – | – | 3.7 | 340 | 17 mL/min/kg | 43 | – |
| CCc1nc2ncnn2c(O)c1Cc1ccc(C2(C)CCOCC2)cc1 [Compound 35] | >1000/>1000/>1000 ug/mL | >1000/>1000/>1000 ug/mL | >1000/>1000/>1000 ug/mL | 5.7 | 22 | 17 mL/min/kg | 37 | 380 |
| CCc1nc2ncnn2c(O)c1Cc1ccc(C(C)(C)COC)cc1 [Compound 36] | 62 ug/mL | > 1000 ug/mL | > 1000 ug/mL | 5.9 | 13 | 20 mL/min/kg | 49 | 60 |
